# “And” between values parts separate entries of the source, which are not always exact repeats. Equal values may be shown once. “Also recorded” adds a separate entry of the source. Read-outs that look alike come from different tables or passages of the source.
# Experiments:
# Storage at 40° C./75% RH = format: physicochemical; settings: for 40° C./75% RH, appearance / 40° C./75% RH, XRPD: 7 d; for 40° C./75% RH, observation or form change: storage time not stated
# Protocol: A new XRPD pattern corresponding to the HBr salt was obtained upon storage of HBr Pattern 1 (Form J) at 40° C./75% relative humidity.
# The sample was dried in a vacuum oven at 40° C./3 mbar for 18 h to yield the L-malate (Form R) as a white solid. NMR analysis of the sample of Form R formed during the storage of Form Q at 40° C./75% RH confirmed it to be a mono-malate salt.
# [1] = 24 h
# Protocol: Thermodynamic Aqueous Solubility
# The suspension was equilibrated at 25° C. for 24 hours then the pH was measured. The suspension was then filtered through a glass fibre C filter into a 96 well plate. The filtrate was then diluted by a factor of 101. Quantitation was by HPLC with reference to a standard solution of approximately 0.1 mg. ml^−1 in DMSO. Different volumes of the standard, diluted and undiluted sample solutions were injected.
# The suspension was equilibrated at 25° C. for 24 hours. The suspension was then filtered through a filter into an HPLC vial. The filtrate was then diluted by an appropriate factor. Quantification was executed by HPLC with reference to a standard solution of 0.5 mg in 1 mL acetonitrile/water (1:1). Different volumes of the standard, diluted and undiluted sample solutions were injected.
# The pH of the solution post solubility was pH 5.
# [2] = Gravimetric vapour sorption (GVS) / hygroscopicity; format: physicochemical; settings: for reversible uptake of water from 0 to 90% RH: GVS; for mass increase (GVS): 25° C., 40-90% RH
# Protocol: Gravimetric Vapour Sorption (GVS)
# Sorption isotherms were obtained using a SMS DVS Intrinsic moisture sorption analyser, controlled by SMS Analysis Suite software. […] The humidity was controlled by mixing streams of dry and wet nitrogen, with a total flow rate of 200 ml. min^−1. The relative humidity was measured by a calibrated Rotronic probe (dynamic range of 1.0-100% RH), located near the sample. The weight change, (mass relaxation) of the sample as a function of % RH was constantly monitored by the microbalance (accuracy ±0.005 mg). Typically 5-20 mg of sample was placed in a tared mesh stainless steel basket under ambient conditions. The sample was loaded and unloaded at 40% RH and 25° C. (typical room conditions). A moisture sorption isotherm was performed as outlined below (2 scans giving 1 complete cycle). The standard isotherm was performed at 25° C. at 10% RH intervals over a 0.5-90% RH range.
# Method Parameters for SMS DVS Intrinsic Experiments:
# The sample was recovered after completion of the isotherm and re-analysed by XRPD.
# Hiden Isochema Moisture Sorption Analyser (IGAsorp)
# Sorption isotherms were obtained using a Hiden Isochema Moisture Sorption Analyser (IGAsorp) controlled by IGAsorp Systems Software V6.50.48. […] The humidity was controlled by mixing streams of dry and wet nitrogen, with a total flow rate of 250 ml. min^−1. The instrument was verified for relative humidity content by measuring three calibrated Rotronic salt solutions (10-50-88%). The weight change of the sample as a function of % RH was monitored by microbalance (accuracy ±0.005 mg). A defined amount of sample was placed in a tared mesh stainless steel basket under ambient conditions. A full experimental cycle consisted of two scans (sorption and desorption) at a constant temperature (25° C.) and 10% RH intervals over a 10-90% RH range (90 minutes for each humidity level).
# 11.254 mg of sample was placed in a tarred mesh stainless steel basket under ambient conditions. A full experimental cycle consisted of two scans (sorption and desorption) at a constant temperature (25° C.) and 10% RH intervals over a 40-90% range (180 minutes for each humidity level). The mass increase of approximately 0.09 mg (−0.8%) and the facile uptake and loss relative to humidity level indicates a non-hygroscopic sample that dampens with surface moisture only.
# cyclin dependent kinases = settings: cited from earlier work
# [3] = test system: range of different cell lines; settings: cited from earlier work
# [4] = Storage in a humidity chamber at 25° C. (75%, 94% or 97% RH); format: physicochemical; settings: for observation on storage: 25° C./97% RH, time not stated
# Protocol: However, a large proportion of the peaks corresponding to compound (I) appear as broadened multiplets, probably due to the presence of the sulfonic acid group, making successful assignment non-trivial. A significant quantity of residual TBME was also visible, though this is believed to be unbound solvent rather than a solvate. XRPD analysis confirmed the material to be crystalline. […] Deliquescence of a sample of the product was observed after storage in a humidity chamber at 25° C. and 94% RH for 2 hours. […]
# [5] = Rehydration under ambient conditions followed by TGA; format: physicochemical; settings: 8 mg sample in open TGA pan after heating to 100° C., ambient conditions (approximately 25° C. and 40% RH)
# Protocol: A sample of product was heated to 100° C., held for 10 minutes, cooled to 30° C., held for 5 minutes and then re-heated to 250° C. […] To investigate whether the phosphate salt exists as a hydrate under ambient conditions that can be reversibly dehydrated at temperature in the presence of air, a series of TGA experiments were undertaken to clarify how quickly the material rehydrates under ambient conditions. A series of samples were taken to 100° C. then cooled to 25° C. under nitrogen using the TGA equipment. The samples were stored under ambient conditions (RT in air) for varying times and then the TGA experiment was re-run. As a comparison a heat/cool/heat experiment was undertaken under an inert atmosphere of nitrogen using the TGA; a sample was heated to 100° C., cooled to 25° C. and heated to 100° C. for a second time.
# Within 30 minutes an 8 mg sample of product in an open TGA pan had fully rehydrated.
# [6] = Polymorph interconversion of L-tartrate Forms D and E (slurry conversion); settings: slurry: 1:1 Form D:Form E, 45° C., 48 hours, ethyl acetate, IPA, IMS or acetonitrile
# Protocol: Form E of the L-Tartrate salt of compound (I) was also prepared by slurry conversion from four different solvents (ethyl acetate, IPA, IMS or acetonitrile). A 1:1 mixture of Form by weight of D: Form E L-Tartrate salt (200 mg total) was heated at 45° C. over 48 hours in 2 ml of solvent prior to filtration and analysis.
compound,measurement,setting,value
CC[C@H](Nc1nc(NCc2cnc(C)cc2C)c2ncn(C(C)C)c2n1)[C@@H](C)O [Form H],"40° C./75% RH, observation",Storage at 40° C./75% RH; 30 min,30 min - Deliquescence
same,AQ Solubility,[1],75 mg/mL
CC[C@H](Nc1nc(NCc2cnc(C)cc2C)c2ncn(C(C)C)c2n1)[C@@H](C)O [Form E],Aqueous solubility,[1],43.9 mg/mL
same,aqueous solubility,[1],43.905 mg/mL
same,hygroscopicity,[2],only slightly hygroscopic
CC[C@H](Nc1nc(NCc2cnc(C)cc2C)c2ncn(C(C)C)c2n1)[C@@H](C)O [compound (I)],CDK inhibitory activity,cyclin dependent kinases,potent
same,potency in cellular toxicity studies,[3],surprisingly high potency
CC[C@H](Nc1nc(NCc2cnc(C)cc2C)c2ncn(C(C)C)c2n1)[C@@H](C)O [Form C],hygroscopicity,[2],low hygroscopicity; also recorded: not hygroscopic
same,uptake of water between 60 and 90% RH,[2]; GVS at 25° C.,0.5 % by weight
same,weight loss between 10 and 0% RH,[2]; GVS at 25° C.,0.5%
CC[C@H](Nc1nc(NCc2cnc(C)cc2C)c2ncn(C(C)C)c2n1)[C@@H](C)O [Form G],XRPD after storage,[4]; 25° C. and 75% RH for 70 hours,"consistent with that of the original product, but with a slightly larger amorphous halo"
same,appearance after storage,[4]; 25° C. and 75% RH for 70 hours,slightly tacky
same,appearance after storage,[4]; 25° C. and 94% RH for 2 hours,Deliquescence
same,hygroscopicity,[2],highly hygroscopic above 75% RH
CC[C@H](Nc1nc(NCc2cnc(C)cc2C)c2ncn(C(C)C)c2n1)[C@@H](C)O [Form R],hygroscopicity,[2],less hygroscopic than the benzensulfonate and citrate salts
same,reversible uptake of water from 0 to 90% RH,[2],Reversible uptake of ~2.5 wt % H2O from 0 to 90% RH
CC[C@H](Nc1nc(NCc2cnc(C)cc2C)c2ncn(C(C)C)c2n1)[C@@H](C)O [Form B],XRPD after storage,[4]; 25° C. and 94% RH for 88 hours,matched those acquired for the phosphate salt crystallised from ethanol
same,appearance after storage,[4]; 25° C. and 94% RH for 88 hours,no deliquescence was observed
same,time to full rehydration,[5],≤ 30 min
same,hygroscopicity,[2],not to be hygroscopic
same,XRPD of sample post GVS,[2]; GVS at 25° C.,matched those acquired from product crystallised from ethanol
same,uptake of water above 80% RH,[2]; GVS at 25° C.,~1.5 weight %
same,water lost upon taking to 0% RH,[2]; GVS at 25° C.,0.5 weight %
same,XRPD of sample post GVS,[2]; GVS at 40° C.,matched those acquired from product crystallised from ethanol
same,uptake of water above 80% RH,[2]; GVS at 40° C.,~2 weight %
same,water lost upon taking to 0% RH,[2]; GVS at 40° C.,~2.6 weight %
CC[C@H](Nc1nc(NCc2cnc(C)cc2C)c2ncn(C(C)C)c2n1)[C@@H](C)O [Form F],XRPD after storage,[4]; 25° C. and 75% RH for 70 hours,consistent with that of the original product
same,appearance after storage,[4]; 25° C. and 75% RH for 70 hours,unchanged
same,XRPD after storage,[4]; 25° C. and 94% RH for 3 days,"same pattern as obtained for the initial product, but with a significant amorphous halo"
same,appearance after storage,[4]; 25° C. and 94% RH for 3 days,"slightly tacky, though it had not deliquesced"
same,hydrate formation at high RH (GVS),[2],no hydrate is formed
same,hygroscopicity,[2],hygroscopic above only 70% RH
CC[C@H](Nc1nc(NCc2cnc(C)cc2C)c2ncn(C(C)C)c2n1)[C@@H](C)O [Form L],"40° C./75% RH, observation",Storage at 40° C./75% RH; 15 h,15 h - Deliquesced
same,"40° C./75% RH, observation","Storage at 40° C./75% RH; 15 h, listed as Mesylate Pattern 1",deliquescence
same,"40° C./75% RH, appearance",Storage at 40° C./75% RH,7 d - No change
same,"40° C./75% RH, observation or form change",Storage at 40° C./75% RH; listed as mesylate salt,deliquescence
same,AQ Solubility,[1],137 mg/mL
same,Aqueous solubility,[1],~140 mg/mL
same,observation on storage,[4],deliquescence
same,hygroscopicity,[2]; listed as Mesylate Pattern 1,hygroscopic
CC[C@H](Nc1nc(NCc2cnc(C)cc2C)c2ncn(C(C)C)c2n1)[C@@H](C)O [Form D],relative stability of the L-tartrate polymorphs,[6],metastable
same,XRPD after storage,[4]; 25° C. and 75% RH for 4 days,consistent with that of the original product
same,appearance after storage,[4]; 25° C. and 75% RH for 4 days,unchanged
same,XRPD after storage,[4]; 25° C. and 94% RH for 70 hours,"some peaks corresponding to those in the pattern acquired for the original product, though a significant amorphous halo was also visible"
same,appearance after storage,[4]; 25° C. and 94% RH for 70 hours,"slightly tacky, though it had not deliquesced"
same,hydrate formation at high RH (GVS),[2],no hydrate is formed
same,hygroscopicity,[2],hygroscopic only above 70% RH
CC[C@H](Nc1nc(NCc2cnc(C)cc2C)c2ncn(C(C)C)c2n1)[C@@H](C)O [Form I],"40° C./75% RH, XRPD",Storage at 40° C./75% RH,conversion to HCl
same,"40° C./75% RH, appearance",Storage at 40° C./75% RH,Sticky solid
same,"40° C./75% RH, observation or form change",Storage at 40° C./75% RH,unstable; also recorded: conversion to HCl Pattern 1 (Form H)
same,AQ Solubility,[1],> 79 mg/mL
CC[C@H](Nc1nc(NCc2cnc(C)cc2C)c2ncn(C(C)C)c2n1)[C@@H](C)O [Form J],"40° C./75% RH, observation",Storage at 40° C./75% RH; 15 h,deliquescence and 15 h - Deliquescence
same,"40° C./75% RH, XRPD",Storage at 40° C./75% RH,conversion to a new
same,"40° C./75% RH, appearance",Storage at 40° C./75% RH,crystallisation was observed; also recorded: Sticky solid
same,"40° C./75% RH, observation or form change",Storage at 40° C./75% RH,conversion to a new Pattern—HBr Pattern 2 (Form K)
same,AQ Solubility,[1],> 30 mg/mL
CC[C@H](Nc1nc(NCc2cnc(C)cc2C)c2ncn(C(C)C)c2n1)[C@@H](C)O [Form M],"40° C./75% RH, XRPD",Storage at 40° C./75% RH,consistent with Maleate
same,"40° C./75% RH, appearance",Storage at 40° C./75% RH,Sticky solid
same,"40° C./75% RH, observation or form change",Storage at 40° C./75% RH; listed as Maleate Pattern 1,sticky solid
same,AQ Solubility,[1],73 mg/mL
same,observation on storage,[4],deliquescence
same,hygroscopicity,[2]; listed as Maleate Pattern 1,hygroscopic above 75% RH
same,hygroscopicity,[2]; listed as maleate salt,hygroscopic above 40° C./70% RH
CC[C@H](Nc1nc(NCc2cnc(C)cc2C)c2ncn(C(C)C)c2n1)[C@@H](C)O [Form Q],"40° C./75% RH, observation",Storage at 40° C./75% RH; 15 h,15 h - Deliquescence
same,"40° C./75% RH, observation","Storage at 40° C./75% RH; 15 h, listed as L-malate Pattern 1",deliquescence
same,"40° C./75% RH, observation",Storage at 40° C./75% RH; 72 h,crystallisation had occurred
same,"40° C./75% RH, observation","Storage at 40° C./75% RH; 72 h, listed as L-malate Pattern 1",crystallisation of a new solid form
same,"40° C./75% RH, appearance",Storage at 40° C./75% RH,White solid
same,"40° C./75% RH, observation",Storage at 40° C./75% RH; inside 2 h,deliquescence
same,AQ Solubility,[1],92 mg/mL
same,hygroscopicity,[2]; listed as L-malate Pattern 1,hygroscopic
CC[C@H](Nc1nc(NCc2cnc(C)cc2C)c2ncn(C(C)C)c2n1)[C@@H](C)O [Form A],hygroscopicity,[2],non-hygroscopic
same,mass increase (GVS),[2],−0.8%
same,mass increase (GVS),[2]; 11.254 mg sample,approximately 0.09 mg
same,XRPD of sample post GVS,[2]; GVS at 25° C.,no change
CC[C@H](Nc1nc(NCc2cnc(C)cc2C)c2ncn(C(C)C)c2n1)[C@@H](C)O [Form P],"40° C./75% RH, appearance",Storage at 40° C./75% RH,No visual change
same,AQ Solubility,[1],54 mg/mL
same,Aqueous solubility,[1],approximately 50 mg. ml^−1
same,hygroscopicity,[2],"Non-hygroscopic, reversible uptake of"
same,reversible uptake of water from 0 to 90% RH,[2],<0.4 wt % from 0 to 90% RH
same,reversible uptake of water from 0 to 90% RH,[2]; listed as Fumarate Pattern 1,less than 0.4 wt %
same,hygroscopicity,[2]; listed as Fumarate Pattern 1,non-hygroscopic

# Source: patent US8889861B2, “Crystalline forms of a purine derivative” (Cyclacel Limited, priority 2010, dated 2014)
